≈ marks a conversion by molar mass, not a printed value. Blank lines part the entries; values can stand above or below the compound they belong to. Calls of active or inactive are those of the source. The calls are words filed in the database; no cut-off is given here.
What was measured:
A549 [1] = test: Increase in Fas protein level in A549 cells at 40 ug/ml after 48 hrs relative to control; assay type: functional, Homo sapiens
A549 [2] = test: Antiproliferative activity against human A549 cells after 48 hrs by MTT assay; assay type: functional, cell-based; conditions: A549, 48 h
A549 [3] = test: Cell cycle arrest in A549 cells assessed as accumulation at G1 phase at 40 ug/ml after 48 hrs; assay type: functional, Homo sapiens
A549 [4] = test: Cell cycle arrest in A549 cells assessed as accumulation at S phase at 40 ug/ml after 48 hrs; assay type: functional, Homo sapiens
A549 [5] = test: Increase in P53 protein level in A549 cells at 40 ug/ml after 48 hrs relative to control; assay type: functional, Homo sapiens
A549 [6] = test: Induction of apoptosis in A549 cells assessed as DNA fragmentation at 40 ug/ml after 48 hrs by acridine orange assay; assay type: functional, cell-based; conditions: Homo sapiens
A549 [7] = test: Cell cycle arrest in A549 cells assessed as accumulation at G2/M phase at 40 ug/ml after 48 hrs; assay type: functional, Homo sapiens
A549 [8] = test: Effect on morphology in A549 cells assessed as formation of apoptotic bodies at 40 ug/ml after 48 hrs; assay type: functional, cell-based; conditions: Homo sapiens

- IC50 (A549 [2]): 22.9 µg/mL (≈ 65.9 µM)
SMILES: COc1ccc(N2CC(COc3ccc(Cl)cc3)OCC2=O)cc1 (stereo not given)
- Activity (A549 [1]): 23.45%
- Activity (A549 [3]): 79.44%
- Activity (A549 [4]): 10.99%
- Activity (A549 [5]): 22.41%
- Activity (A549 [6]): Active

- IC50 (A549 [2]): 16.6 µg/mL (≈ 50.6 µM)
SMILES: O=C1COC(COc2ccc([N+](=O)[O-])cc2)CN1c1ccccc1 (stereo not given)
- Activity (A549 [1]): 40.97%
- Activity (A549 [3]): 73.3%
- Activity (A549 [7]): 18.64%
- Activity (A549 [8]): Active
- Activity (A549 [5]): 33.73%
- Activity (A549 [6]): Active

- IC50 (A549 [2]): 38 µg/mL (≈ 105 µM)
SMILES: O=C1COC(COc2ccc([N+](=O)[O-])cc2)CN1c1ccc(Cl)cc1 (stereo not given)
- Activity (A549 [1]): 21.53%
- Activity (A549 [3]): 63.25%
- Activity (A549 [4]): 14.82%
- Activity (A549 [7]): 21.93%
- Activity (A549 [5]): 23.98%
- Activity (A549 [6]): Active

— ChEMBL document CHEMBL1147941, “Novel morpholin-3-one derivatives induced apoptosis and elevated the level of P53 and Fas in A549 lung cancer cells” (Bioorg Med Chem, 2007)
